{"source": "PubChem BioAssay AID1259407", "about": "(Chemical Carcinogenesis Research Information System (CCRIS), 2018)", "tested_on": "CCRIS mutagenicity, Ames/micronucleus/aberration tests", "assay": "CCRIS mutagenicity studies", "key": {"[1]": {"conditions": "Test System: AMES SALMONELLA TYPHIMURIUM, Strain/Indicator: TA98, Metabolic Activation: NONE, Method: STANDARD PLATE"}, "[2]": {"conditions": "Test System: AMES SALMONELLA TYPHIMURIUM, Strain/Indicator: TA98, Metabolic Activation: RAT, LIVER, S-9, AROCLOR 1254, Method: STANDARD PLATE"}, "[3]": {"conditions": "Test System: AMES SALMONELLA TYPHIMURIUM, Strain/Indicator: TA100, Metabolic Activation: NONE, Method: STANDARD PLATE"}, "[4]": {"conditions": "Test System: AMES SALMONELLA TYPHIMURIUM, Strain/Indicator: TA100, Metabolic Activation: RAT, LIVER, S-9, AROCLOR 1254, Method: STANDARD PLATE"}, "[5]": {"conditions": "Test System: AMES SALMONELLA TYPHIMURIUM, Strain/Indicator: TA1535, Metabolic Activation: NONE, Method: STANDARD PLATE"}, "[6]": {"conditions": "Test System: AMES SALMONELLA TYPHIMURIUM, Strain/Indicator: TA1537, Metabolic Activation: NONE, Method: STANDARD PLATE"}, "[7]": {"conditions": "Test System: AMES SALMONELLA TYPHIMURIUM, Strain/Indicator: TA1538, Metabolic Activation: NONE, Method: STANDARD PLATE"}, "[8]": {"conditions": "Test System: AMES SALMONELLA TYPHIMURIUM, Strain/Indicator: TA1538, Metabolic Activation: RAT, LIVER, S-9, AROCLOR 1254, Method: STANDARD PLATE"}, "[9]": {"conditions": "Test System: MOUSE LYMPHOMA, Strain/Indicator: L5178Y (TK+/TK-), Metabolic Activation: NONE, Method: SUSPENSION/PLATE"}, "[10]": {"conditions": "Test System: MOUSE LYMPHOMA, Strain/Indicator: L5178Y (TK+/TK-), Metabolic Activation: RAT, LIVER, S-9, AROCLOR 1254, Method: SUSPENSION/PLATE"}}, "note": "Active and inactive are the calls of the source. The rule behind the calls is not given here.", "data": [{"compound": "CCOCCc1c(-c2ccccc2)nc(N)n2ncnc12", "values": [{"measurement": "mutagenic call", "setting": "[1]", "result": "inactive; negative"}, {"measurement": "mutagenic call", "setting": "[2]", "result": "inactive; negative"}, {"measurement": "mutagenic call", "setting": "[3]", "result": "inactive; negative"}, {"measurement": "mutagenic call", "setting": "[4]", "result": "inactive; negative"}, {"measurement": "mutagenic call", "setting": "[5]", "result": "inactive; negative"}, {"measurement": "mutagenic call", "setting": "Test System: AMES SALMONELLA TYPHIMURIUM, Strain/Indicator: TA1535, Metabolic Activation: RAT, LIVER, S-9, AROCLOR 1254, Method: STANDARD PLATE", "result": "inactive; negative"}, {"measurement": "mutagenic call", "setting": "[6]", "result": "inactive; negative"}, {"measurement": "mutagenic call", "setting": "Test System: AMES SALMONELLA TYPHIMURIUM, Strain/Indicator: TA1537, Metabolic Activation: RAT, LIVER, S-9, AROCLOR 1254, Method: STANDARD PLATE", "result": "inactive; negative"}, {"measurement": "mutagenic call", "setting": "[7]", "result": "inactive; negative"}, {"measurement": "mutagenic call", "setting": "[8]", "result": "inactive; negative"}, {"measurement": "mutagenic call", "setting": "Test System: CHINESE HAMSTER OVARY, Strain/Indicator: CHO-K1-BH4 (HGPRT)/6-THIOGUANINE, Metabolic Activation: NONE", "result": "inactive; negative"}, {"measurement": "mutagenic call", "setting": "Test System: CHINESE HAMSTER OVARY, Strain/Indicator: CHO-K1-BH4 (HGPRT)/6-THIOGUANINE, Metabolic Activation: RAT, LIVER, S-9, AROCLOR 1254", "result": "inactive; negative"}, {"measurement": "mutagenic call", "setting": "[9]", "result": "inactive; negative"}, {"measurement": "mutagenic call", "setting": "[10]", "result": "inactive; negative"}, {"measurement": "mutagenic call", "setting": "Test System: UDS RAT PRIMARY HEPATOCYTES, Strain/Indicator: THY INCORP, Metabolic Activation: NONE, Method: AUTORADIOGRAPHY", "result": "inactive; negative"}]}, {"compound": "CCC(C)Nc1snc2ccccc12", "note": "(stereo not given)", "values": [{"measurement": "mutagenic call", "setting": "[1]", "result": "inactive; negative"}, {"measurement": "mutagenic call", "setting": "Test System: AMES SALMONELLA TYPHIMURIUM, Strain/Indicator: TA98, Metabolic Activation: S-9, Method: STANDARD PLATE", "result": "inactive; negative"}, {"measurement": "mutagenic call", "setting": "[3]", "result": "inactive; negative"}, {"measurement": "mutagenic call", "setting": "Test System: AMES SALMONELLA TYPHIMURIUM, Strain/Indicator: TA100, Metabolic Activation: S-9, Method: STANDARD PLATE", "result": "inactive; negative"}, {"measurement": "mutagenic call", "setting": "[5]", "result": "inactive; negative"}, {"measurement": "mutagenic call", "setting": "Test System: AMES SALMONELLA TYPHIMURIUM, Strain/Indicator: TA1535, Metabolic Activation: S-9, Method: STANDARD PLATE", "result": "inactive; negative"}, {"measurement": "mutagenic call", "setting": "[6]", "result": "inactive; negative"}, {"measurement": "mutagenic call", "setting": "Test System: AMES SALMONELLA TYPHIMURIUM, Strain/Indicator: TA1537, Metabolic Activation: S-9, Method: STANDARD PLATE", "result": "inactive; negative"}]}, {"compound": "c1cc2ccc3cc4cccc5ccc6cc(c1)c2c3c6c54", "values": [{"measurement": "mutagenic call", "setting": "[4]", "result": "active; positive"}]}, {"compound": "COP(=O)(OC)OC", "values": [{"measurement": "mutagenic call", "setting": "Test System: AMES SALMONELLA TYPHIMURIUM, Strain/Indicator: TA98, Metabolic Activation: HAMSTER, LIVER, S-9, AROCLOR 1254 (30%), Method: PREINCUBATION", "result": "inactive; negative"}, {"measurement": "mutagenic call", "setting": "Test System: AMES SALMONELLA TYPHIMURIUM, Strain/Indicator: TA98, Metabolic Activation: NONE, Method: PREINCUBATION", "result": "inactive; negative"}, {"measurement": "mutagenic call", "setting": "Test System: AMES SALMONELLA TYPHIMURIUM, Strain/Indicator: TA98, Metabolic Activation: RAT, LIVER, S-9, AROCLOR 1254 (30%), Method: PREINCUBATION", "result": "inactive; negative"}, {"measurement": "mutagenic call", "setting": "Test System: AMES SALMONELLA TYPHIMURIUM, Strain/Indicator: TA100, Metabolic Activation: HAMSTER, LIVER, S-9, AROCLOR 1254 (30%), Method: PREINCUBATION", "result": "active; positive"}, {"measurement": "mutagenic call", "setting": "Test System: AMES SALMONELLA TYPHIMURIUM, Strain/Indicator: TA100, Metabolic Activation: NONE, Method: PREINCUBATION", "result": "inactive; negative"}, {"measurement": "mutagenic call", "setting": "Test System: AMES SALMONELLA TYPHIMURIUM, Strain/Indicator: TA100, Metabolic Activation: RAT, LIVER, S-9, AROCLOR 1254 (30%), Method: PREINCUBATION", "result": "active; positive"}, {"measurement": "mutagenic call", "setting": "Test System: AMES SALMONELLA TYPHIMURIUM, Strain/Indicator: TA102, Metabolic Activation: NONE, Method: STANDARD PLATE", "result": "inactive; negative"}, {"measurement": "mutagenic call", "setting": "Test System: AMES SALMONELLA TYPHIMURIUM, Strain/Indicator: TA2638, Metabolic Activation: NONE, Method: STANDARD PLATE", "result": "active; positive"}, {"measurement": "mutagenic call", "setting": "Test System: E. COLI, Strain/Indicator: WP2 (PKM101), Metabolic Activation: NONE, Method: STANDARD PLATE", "result": "active; positive"}, {"measurement": "mutagenic call", "setting": "Test System: E. COLI, Strain/Indicator: WP2 UVRA (PKM101), Metabolic Activation: NONE, Method: STANDARD PLATE", "result": "active; positive"}]}, {"compound": "CCCCOc1cc(N=Nc2ccccc2)ccc1N=Nc1c(S(=O)(=O)O)cc2ccc(N)cc2c1O", "values": [{"measurement": "mutagenic call", "setting": "[1]", "result": "inactive; negative"}, {"measurement": "mutagenic call", "setting": "[2]", "result": "active; positive"}, {"measurement": "mutagenic call", "setting": "[3]", "result": "inactive; negative"}, {"measurement": "mutagenic call", "setting": "[4]", "result": "inactive; negative"}, {"measurement": "mutagenic call", "setting": "[7]", "result": "inactive; negative"}, {"measurement": "mutagenic call", "setting": "[8]", "result": "active; positive"}]}, {"compound": "CCCN(CCC)CCc1cccc2[nH]c3c(C)ccc(C)c3c12", "values": [{"measurement": "mutagenic call", "setting": "[1]", "result": "inactive; negative"}, {"measurement": "mutagenic call", "setting": "Test System: AMES SALMONELLA TYPHIMURIUM, Strain/Indicator: TA98, Metabolic Activation: RAT, LIVER, S-9, PHENOBARBITAL AND 5,6-BENZOFLAVONE, Method: STANDARD PLATE", "result": "active; positive"}, {"measurement": "mutagenic call", "setting": "[3]", "result": "inactive; negative"}, {"measurement": "mutagenic call", "setting": "Test System: AMES SALMONELLA TYPHIMURIUM, Strain/Indicator: TA100, Metabolic Activation: RAT, LIVER, S-9, PHENOBARBITAL AND 5,6-BENZOFLAVONE, Method: STANDARD PLATE", "result": "active; positive"}, {"measurement": "mutagenic call", "setting": "Test System: UDS HUMAN HEPATOCYTES, Strain/Indicator: THY INCORP, Metabolic Activation: NONE, Method: IN VITRO", "result": "active; positive"}, {"measurement": "mutagenic call", "setting": "Test System: UDS RAT HEPATOCYTES, Strain/Indicator: THY INCORP, Metabolic Activation: NONE, Method: IN VIVO-IN VITRO", "result": "active; positive"}]}, {"compound": "CN(C)C(=O)Cl", "values": [{"measurement": "mutagenic call", "setting": "[3]", "result": "active; positive"}, {"measurement": "mutagenic call", "setting": "[5]", "result": "active; positive"}, {"measurement": "mutagenic call", "setting": "Test System: E. COLI, Strain/Indicator: WP2 UVRA, Metabolic Activation: HAMSTER, LIVER, S-9, AROCLOR 1254, Method: PREINCUBATION", "result": "inactive; negative"}, {"measurement": "mutagenic call", "setting": "Test System: E. COLI, Strain/Indicator: WP2 UVRA, Metabolic Activation: HAMSTER, LIVER, S-9, AROCLOR 1254, Method: STANDARD PLATE", "result": "inactive; negative"}, {"measurement": "mutagenic call", "setting": "Test System: E. COLI, Strain/Indicator: WP2 UVRA, Metabolic Activation: HAMSTER, LIVER, S-9, Method: STANDARD PLATE", "result": "inactive; negative"}, {"measurement": "mutagenic call", "setting": "Test System: E. COLI, Strain/Indicator: WP2 UVRA, Metabolic Activation: MOUSE, LIVER, S-9, AROCLOR 1254, Method: PREINCUBATION", "result": "inactive; negative"}, {"measurement": "mutagenic call", "setting": "Test System: E. COLI, Strain/Indicator: WP2 UVRA, Metabolic Activation: MOUSE, LIVER, S-9, AROCLOR 1254, Method: STANDARD PLATE", "result": "inactive; negative"}, {"measurement": "mutagenic call", "setting": "Test System: E. COLI, Strain/Indicator: WP2 UVRA, Metabolic Activation: MOUSE, LIVER, S-9, Method: PREINCUBATION", "result": "inactive; negative"}, {"measurement": "mutagenic call", "setting": "Test System: E. COLI, Strain/Indicator: WP2 UVRA, Metabolic Activation: MOUSE, LIVER, S-9, Method: STANDARD PLATE", "result": "inactive; negative"}, {"measurement": "mutagenic call", "setting": "Test System: E. COLI, Strain/Indicator: WP2 UVRA, Metabolic Activation: NONE, Method: STANDARD PLATE", "result": "inactive; negative"}, {"measurement": "mutagenic call", "setting": "Test System: E. COLI, Strain/Indicator: WP2 UVRA, Metabolic Activation: RAT, LIVER, S-9, AROCLOR 1254, Method: STANDARD PLATE", "result": "inactive; negative"}, {"measurement": "mutagenic call", "setting": "Test System: E. COLI, Strain/Indicator: WP2 UVRA, Metabolic Activation: RAT, LIVER, S-9, Method: STANDARD PLATE", "result": "inactive; negative"}, {"measurement": "mutagenic call", "setting": "[9]", "result": "active; positive"}, {"measurement": "mutagenic call", "setting": "[10]", "result": "active; positive"}]}]}
